Experiment [1] relates to ABCA1 induced RAW264.7 cells. Briefly: Cholesterol efflux to apoA1 from ABCA1-induced RAW264.7 cells. The format is cell-based, mouse. Conditions: for ABCA1-dependent cholesterol efflux to apoA1: RAW264.7, 1 μM inhibitor, apoA1 chase. The procedure:
(§1) Cell growth and ABCA1 induction: All cell culture incubations were performed at 37° C. in humidified 5% CO2 incubator. The growth media was Dulbecco's Modified Eagle Medium (DMEM) with 10% fetal calf serum, 100 μg/mL penicillin, 100 μg/mL […]. ABCA1 was induced in […] cells by 16-24 hr incubation with 0.3 mM 8Br-cAMP^34. ABCA1 was induced in BHK cells by 16-24 hr incubation with 10 nM mifepristone^31. Inducers were included in the media during subsequent assays. ABCA1 expression was confirmed by western blot using the AC10 antibody (Santa Cruz Biotech).
Cholesterol efflux assay: On day 1, cells were plated on 24-well plates at a density of 20,000 to 400,000 cells per well. On day 2, the cells were labeled with […] [^3H]cholesterol in DMEM containing 1% FBS. On day 3, the cells when indicated were treated with or without ABCA1 inducers in serum-free DMEM. On day 4 (or day 3 for HEK293 cells and ABCA1 stably transfected cells) the cells were washed and chased for 4-6 hr in serum-free DMEM in the presence or absence of 5 μg/ml apoA1. The radioactivity in the chase media was determined after brief centrifugation to pellet any residual debris. Radioactivity in the cells was determined by extraction in hexane:isopropanol (3:2) with the solvent evaporated in a scintillation vial prior to counting. The percent cholesterol efflux was calculated as 100×(medium dpm)/(medium dpm+cell dpm).
Tmem55b knockdown: The siRNA to mouse Tmem55b (Origene, #SR408149) and scrambled control were transfected in RAW264.7 cells using siTran 1.0 (Origene). The cellular protein extracts were prepared using NP-40 lysis buffer containing protease inhibitors. The knockdown efficacy was determined by western blot using anti Tmem55b antibody (Santa Cruz).

Experiment [2] concerns the target T1, immobilized apoA1 (Homo sapiens, UniProt P02647).
T1 construct: ApoA1 was purified form human plasma^29, and dialyzed against PBS; from tissue; host or cells: human plasma
Briefly: Surface plasmon resonance, lipid binding to immobilized apoA1. Particulars: biotinylated apoA1 on sensor chip; PC at 1 μM. The procedure:
(§2) Surface Plasmon resonance: Binding kinetic of PIP2 with different apolipoproteins was analyzed using a Biacore3000 instrument. Either biotinylated apoA1 or biotinylated PIP2 was immobilized on a streptavidin (SA) sensor chip (GE Healthcare). The immobilized apoA1 or PIP2 was stable over the course of the experiment and baseline drift was <10 response units (RU)/h after the washing with Hepes buffered saline (FIBS) buffer. Different concentrations of apoA1 or PIP2 were injected using the KINJECT procedure at flow-rate of 10 μl/min and dissociation was monitored by injecting FIBS buffer. The injections were performed in triplicate for each ligand concentration. For comparing binding kinetics of PIP2 with apoA1, apoA2 and apoE, these proteins were immobilized by covalent coupling on a CMS sensor chip (GE Healthcare) using EDC-NHS reagents. PIP2 was injected as described above. Corrected response data were fitted with BIAevaluation software version 4.01, and Kd values were calculated.
For orientation: Surface plasmon resonance follows binding to a sensor surface in real time, without labels.

Experiment [3] deals with apoA1 (Homo sapiens, UniProt P02647). Briefly: Fluorescence anisotropy, apoA1 binding to bodipy-labeled PIP2. Conditions: summary statement in the detailed description; read-out: dissociation constant of apoA1 binding to PIP2. On the technique in general: In fluorescence polarisation assays a small probe gives low polarisation when free and higher when bound to something large.
Sequence of apoA1 (P02647 25-267 limits assumed): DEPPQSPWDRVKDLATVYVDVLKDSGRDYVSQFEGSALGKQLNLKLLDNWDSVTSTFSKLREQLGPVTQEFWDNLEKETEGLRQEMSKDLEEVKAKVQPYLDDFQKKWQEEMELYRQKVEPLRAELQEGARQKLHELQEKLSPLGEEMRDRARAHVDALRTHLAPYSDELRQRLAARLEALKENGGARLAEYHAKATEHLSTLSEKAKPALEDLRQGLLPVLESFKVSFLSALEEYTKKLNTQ

Experiment [4] addresses T2, apoA2 (Homo sapiens, UniProt P02652).
T2 construct: purchased Origene TP721104
Briefly: Surface plasmon resonance, PIP2 binding to immobilized apoA2. How it is done: as §2

The target in experiment [5] is T3, apoE (Homo sapiens, UniProt P02649).
T3 construct: purchased Origene TP723016
T3 sequence (P02649 19-317): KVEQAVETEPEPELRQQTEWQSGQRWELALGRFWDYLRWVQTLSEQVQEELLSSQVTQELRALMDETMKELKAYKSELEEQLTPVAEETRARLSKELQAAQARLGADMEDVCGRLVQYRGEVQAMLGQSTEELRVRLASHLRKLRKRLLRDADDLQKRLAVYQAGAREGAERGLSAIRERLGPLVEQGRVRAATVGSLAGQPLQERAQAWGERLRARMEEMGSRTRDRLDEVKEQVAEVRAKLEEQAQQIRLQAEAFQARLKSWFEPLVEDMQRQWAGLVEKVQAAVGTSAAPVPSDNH
Briefly: Surface plasmon resonance, PIP2 binding to immobilized apoE. How it is done: as §2

Experiment [6] concerns ABCA1 expressing RAW264.7 cells. Briefly: ApoA1 cell binding by flow cytometry, RAW264.7 cells. The format is cell-based, mouse. Particulars: ABCA1-induced RAW264.7, apoA1 pre-incubated with PIP2 (5:1 mole ratio). How it is done: as §1
Cell surface PS, PIP2, and apoA1 binding assays via flow cytometry: Cell surface PS levels were determined by flow cytometry after cell scraping in PBS, re-suspension in Annexin V binding buffer, and incubation with AnnexinV-Cy5 (Biovision) at room temperature for 5 minutes in the dark. Cell surface PIP2 levels were determined by flow cytometry by incubation with Alexa647 or FITC labeled anti-PIP2 antibody (Echelon) in phenol red-free, serum-free, DMEM at room temperature for 30 min. Human apoA1 was labeled with Alexa647 (Molecular Probes) on free amines using a 6:1 mole ratio of dye:apoA1. Alexa647-apoA1 binding was determined by flow cytometry after incubation with cells for 45 minutes at room temperature. […] Data was analyzed by Flowjo software and the median relative fluorescent intensities were compared.

T1 sequence (P02647 25-267 limits assumed): as the sequence (P02647 25-267 limits assumed) above
T2 sequence (P02652 19-100): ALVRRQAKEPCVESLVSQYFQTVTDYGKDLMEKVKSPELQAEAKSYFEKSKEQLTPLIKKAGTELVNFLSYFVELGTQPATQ

As to `CC(C)(C)C(=O)Nc1ccc2c(c1)C(=O)C(=O)c1ccccc1-2` [SF1670], the “ABCA1-dependent cholesterol efflux to apoA1” value in experiment [1] is given as “decreased”.
On to `CC(=O)Nc1nc(C)c(-c2ccc(Cl)c(S(=O)(=O)NCCO)c2)s1` [PIK-93], for which the “ABCA1-dependent cholesterol efflux to apoA1” value in experiment [1] was “decreased”.
With phosphatidylcholine [PC], in experiment [2], the “binding to immobilized apoA1 (SPR)” value is listed as “no binding”.
Consider `CCCCC/C=C\C/C=C\C/C=C\C/C=C\CCCC(=O)O[C@H](COC(=O)CCCCCCCCCCCCCCCCC)COP(=O)(O)O[C@@H]1[C@H](O)[C@H](O)[C@@H](OP(=O)(O)O)[C@H](OP(=O)(O)O)[C@H]1O` [PIP2, phosphatidylinositol (4,5) bis-phosphate], for which the Kd in experiment [3] is around 0.1 µM. Moreover, the “binding to immobilized apoA1 (SPR)” value in experiment [2] is on record as “direct binding”. Besides, the “direct binding to apoA2 (SPR)” value in experiment [4] is given as “direct binding”. The “direct binding to apoE (SPR)” value in experiment [5] is “direct binding”. Besides, the “cholesterol efflux to apoA1” value in experiment [1] (ABCA1-induced RAW264.7, apoA1 5 μg/ml pre-incubated with PIP2 (PIP2:apoA1 5:1 mole ratio)) was “decreased”. The apoA1 binding result in experiment [6] is listed as “decreased”.
